Laboratory results from article PMC3516535, “Rhesus Macaque Theta Defensins Suppress Inflammatory Cytokines and Enhance Survival in Mouse Models of Bacteremic Sepsis” (PLoS ONE, 2012).
Bridge positions count the residues as written; N and C are the ends. Peptide text beside a SMILES is read from it.

Assays:
[1] = test system: human EDTA-anti-coagulated blood diluted 1∶10; assay: TNF release assay in stimulated diluted whole blood (ELISA); type: cell-based

CC[C@H](C)[C@@H]1NC(=O)[C@@H]2CSSC[C@H](NC(=O)[C@H](CCCNC(=N)N)NC(=O)[C@@H]3CSSC[C@H](NC1=O)C(=O)N[C@@H]([C@@H](C)O)C(=O)N[C@@H](CCCNC(=N)N)C(=O)NCC(=O)N[C@@H](Cc1ccccc1)C(=O)N3)C(=O)N[C@@H](CC(C)C)C(=O)N[C@H]1CSSC[C@H](NC(=O)[C@H](C(C)C)NC(=O)CNC(=O)[C@H](CCCNC(=N)N)NC(=O)[C@H](CCCNC(=N)N)NC1=O)C(=O)N[C@@H](CCCNC(=N)N)C(=O)N2 [RTD-1] (cyclo(GFCRCLCRRGVCRCICTR); disulfide 3-16, 5-14, 7-12)
TNF-release inhibition [1]: 70–80%
reduction of TNF levels [1]: 46–93%
clinical and injection site effects (adult chimpanzees; escalating i.v. doses (0.2 to 3.0 mg/kg over 14 days), two animals): No clinical or injection site effects were observed
comprehensive metabolic panels and complete blood counts with differential (adult chimpanzees; escalating i.v. doses, all time points incl. days 21, 28, 60): no abnormalities
anti-RTD-1 antibody (dot blot immunoassay) (adult chimpanzees; serum samples after escalating i.v. doses, two animals): No anti-RTD-1 antibody was detected
